The values below come from patent US12629382B2, “Therapy” (Vestlandets Innovasjonsselskap AS, priority 2019, dated 2026).

Molecules are shown by their SMILES.

What all share (assay type): cell-based
Assay [1] concerns A375. The assay can be described thus: Intracellular GSH, GSH-Glo assay, A375 cells. The note with it: Homo sapiens, 48 h, normalized to untreated control; for activity at 250 µM: A-375, 250 μM compound, read-out: Intracellular GSH level A375 250 μM; for activity at 500 µM: A-375, 500 μM compound, read-out: Intracellular GSH level A375 500 μM. How it is done: (§1) The cancer cell lines A172, A375, U87 and MCF7 were purchased from American Type Culture Collection (ATCC; Manassas, Va., USA). Cells were cultured in Dulbecco's Modified Eagle's Medium (DMEM) supplemented with 10% fetal bovine serum, 2% v/v L-glutamine, 3.2% v/v non-essential amino acids, antibiotics 2% v/v (penicillin-streptomycin), and 0.02% v/v Plasmocin at 37° C. and 5% CO2.
(§2) xCT expression of cancer cell lines was evaluated by western blotting from protein samples of cell lysates as described in Sleire et al., Oncogene 34: 5951-5959, 2015. Protein concentrations were determined by BCA assay (Thermo Fisher Scientific, USA) followed by SDS PAGE and immunoblotting using rabbit anti-xCT (Thermo Fisher Scientific) and rabbit anti-GAPDH (Abcam, Cambridge, UK) as a loading control. The compounds were dissolved in dimethylsulfoxide (DMSO) (Sigma Aldrich, Germany) and stock concentrations of 100 mM were stored at −20° C. in aliquots. Final concentrations were made in growth medium before adding to the cell monolayers.
(§3) The compounds were evaluated based on the measurement of intracellular Glutathione (GSH) which was performed by the GSH-Glo assay (Promega, Madison, WI, USA, cat #V6912) according to the manufacturer's recommended procedures. 5000 cells per well were seeded in a flat bottomed 96-well plate. After attachment to the well surface, cells were exposed to 250 μM and 500 μM of each compound for 48 h. After that, GSH-Glo reagent was added followed by short incubation and addition of luciferin detection reagent. Bioluminescence was measured using a luminometer (Victor 3 1420 multi-label counter, Perkins Elmer, Waltham, MA, USA). IC50 doses for the compounds SAS, DC10 and DC14 were determined in A172 glioma cells, using the GraphPad Prism v6 software (GraphPad Software, Inc. CA, USA). All measurements were normalized to the untreated control and were performed three times.

Assay [2] concerns MCF7. The assay can be described thus: Intracellular GSH, GSH-Glo assay, MCF7 cells. The note with it: Homo sapiens, 48 h, normalized to untreated control; for activity at 250 µM: 250 μM compound, read-out: Intracellular GSH level MCF7 250 μM; for activity at 500 µM: 500 μM compound, read-out: Intracellular GSH level MCF7 500 μM. How it is done: as §1, §2, §3
The test system of assay [3] is A172 glioma cells. The assay can be described thus: Intracellular GSH, GSH-Glo assay, A172 cells. The conditions noted are these: Homo sapiens, 48 h, normalized to untreated control; for activity at 250 µM: A 172, 250 μM compound, read-out: Intracellular GSH level A172 250 μM; for activity at 500 µM: A 172, 500 μM compound, read-out: Intracellular GSH level A172 500 μM. How it is done: as §1, §2, §3

For assay [4], the system named is U87. The assay can be described thus: Intracellular GSH, GSH-Glo assay, U87 cells. The conditions noted are these: Homo sapiens, U-87 MG, 48 h, normalized to untreated control; for activity at 250 µM: 250 μM compound, read-out: Intracellular GSH level U87 250 μM; for activity at 500 µM: 500 μM compound, read-out: Intracellular GSH level U87 500 μM. How it is done: as §1, §2, §3

For the compound `COc1ccc(/C=C/c2ccccc2)cc1C(=O)O` [DC01, (E)-2-methoxy-5-styrylbenzoic acid], the activity at 250 µM in assay [1] is 60.5%; in assay [2], 93.8%; in assay [3] it was 84.6%; in assay [4], 76.6%. The activity at 500 µM in assay [1] came out at 43.1%; in assay [2] it was 66.5%; in assay [3], 76.2%; in assay [4], 79.6%.
On to `O=C(O)c1cc(/C=C/c2ccccc2)ccc1O` [DC02, (E)-2-hydroxy-5-styrylbenzoic acid], for which the activity at 250 µM in assay [1] amounted to 50.4%; in assay [2], 47.4%; in assay [3], 90.9%; in assay [4], 82.2%. Besides, the activity at 500 µM was found to be 32% in assay [1], 15.9% in assay [2], 41% in assay [3] and 66.9% in assay [4].
Take `COc1ccc(/C=C\c2ccccc2)cc1C(=O)O` [DC03, (Z)-2-methoxy-5-styrylbenzoic acid]: the activity at 250 µM in assay [1] was determined as 68.6%; in assay [2], 94.9%; in assay [3] it was 77.5%; in assay [4] it was 87.9%. The activity at 500 µM was determined as 47.6% in assay [1], 49.4% in assay [2], 68.2% in assay [3] and 88.4% in assay [4].
Regarding `COc1ccc(C#Cc2ccccc2)cc1C(=O)O` [DC04, 2-methoxy-5-(phenylethynyl)benzoic acid], the activity at 250 µM in assay [1] worked out at 63.4%; in assay [2], 91.4%; in assay [3] it was 86.9%; in assay [4] it was 80.6%. The activity at 500 µM in assay [1] came out at 42.4%; in assay [2], 68%; in assay [3], 77.6%; in assay [4] it was 88.6%.
Turning to `COc1ccc(-c2ccc3ccccc3c2)cc1C(=O)O` [DC05, 2-methoxy-5-(naphthalen-2-yl)benzoic acid], the activity at 250 µM is 47.6% in assay [1], 82.4% in assay [2], 75.6% in assay [3] and 42.9% in assay [4]. For the same compound, the activity at 500 µM in assay [1] is 37.9%; in assay [2] it was 39%; in assay [3], 57.7%; in assay [4] it was 39.5%.
As for `O=C(O)c1cc(/C=C/c2ccc(F)cc2)ccc1O` [DC07, (E)-5-(4-fluorostyryl)-2-hydroxybenzoic acid], the activity at 250 µM is 23.8% in assay [1], 22.1% in assay [2], 81.6% in assay [3] and 50.4% in assay [4]. Also, the activity at 500 µM in assay [1] was 7.8%; in assay [2], 6.9%; in assay [3] it was 16.8%; in assay [4] it was 11.7%.
Take `CSc1ccc(/C=C/c2ccc(O)c(C(=O)O)c2)cc1` [DC08, (E)-2-hydroxy-5-(4-(methylthio)styryl)benzoic acid]: the activity at 250 µM was 25.9% in assay [1], 21.1% in assay [2], 28.8% in assay [3] and 51.1% in assay [4]. Further, the activity at 500 µM in assay [1] is 3.7%; in assay [2], 6.6%; in assay [3], 9.3%; in assay [4], 8.4%.
In the case of `O=C(O)c1cc(-c2ccc3ccccc3c2)ccc1O` [DC11, 2-hydroxy-5-(naphthalen-2-yl)benzoic acid], the activity at 250 µM stood at 36.1% in assay [1], 23.7% in assay [2], 28.4% in assay [3] and 62.6% in assay [4]. For the same compound, the activity at 500 µM in assay [1] was found to be 11.8%; in assay [2], 8.8%; in assay [3] it was 10.2%; in assay [4], 22.7%.
In the case of `Nc1ccc(/C=C/c2ccccc2)cc1C(=O)O` [DC12, (E)-2-amino-5-styrylbenzoic acid], the activity at 250 µM in assay [1] amounted to 116%; in assay [2], 116%; in assay [3], 107%; in assay [4], 104%. For the same compound, the activity at 500 µM in assay [1] worked out at 95.6%; in assay [2], 96.5%; in assay [3], 101%; in assay [4] it was 117%.
For the compound `CS(=O)(=O)c1ccc(/C=C/c2ccc(O)c(C(=O)O)c2)cc1` [DC13, (E)-2-hydroxy-5-(4-(methylsulfonyl)styryl)benzoic acid], the activity at 250 µM was 74.3% in assay [1], 88.3% in assay [2], 94.1% in assay [3] and 105% in assay [4]. In addition, the activity at 500 µM in assay [1] worked out at 59.7%; in assay [2], 76.6%; in assay [3], 81.6%; in assay [4] it was 103%.
`O=C(O)c1cc(/C=C/c2ccc(S(=O)(=O)Nc3ccccc3)cc2)ccc1O` [DC14, (E)-2-hydroxy-5-(4-(N-phenylsulfamoyl)styryl)benzoic acid]: the activity at 250 µM worked out at 4.5% in assay [1], 25.9% in assay [2], 23.1% in assay [3] and 18% in assay [4]. The activity at 500 µM in assay [1] was determined as 2%; in assay [2], 1.8%; in assay [3] it was 2.4%; in assay [4], 1.9%.
For `Oc1ccc(/C=C/c2ccccc2)cc1-c1nnn[nH]1` [DC15, (E)-4-styryl-2-(1H-tetrazol-5-yl)phenol], the activity at 250 µM worked out at 53.3% in assay [1], 75.8% in assay [2], 55.1% in assay [3] and 104% in assay [4]. In addition, the activity at 500 µM in assay [1] was 46.4%; in assay [2], 32.6%; in assay [3] it was 9.7%; in assay [4], 50.4%.
`CC(=O)Nc1ccc(/C=C/c2ccccc2)cc1C(=O)O` [DC16, (E)-2-acetamido-5-styrylbenzoic acid]: the activity at 250 µM was 34.5% in assay [1], 92.4% in assay [2], 67.3% in assay [3] and 73.5% in assay [4]. Further, the activity at 500 µM in assay [1] is 26.4%; in assay [2], 83.7%; in assay [3], 51.7%; in assay [4], 63.2%.
Take `O=C(O)c1cc(-c2ccc(-c3ccccc3)cc2)ccc1O` [DC17, 4-hydroxy-[1,1′:4′,1″-terphenyl]-3-carboxylic acid]: the activity at 250 µM in assay [1] turned out to be 56.6%; in assay [2], 51.7%; in assay [3], 98.4%; in assay [4] it was 66.2%. Besides, the activity at 500 µM in assay [1] stood at 4.6%; in assay [2], 17%; in assay [3], 28.7%; in assay [4], 20.2%.
Consider `O=C(O)c1cc(/C=C/c2cccc(-c3ccccc3)c2)ccc1O` [DC18, (E)-5-(2-([1,1′-biphenyl]-3-yl)vinyl)-2-hydroxybenzoic acid], for which the activity at 250 µM in assay [1] was determined as 53.7%; in assay [2], 54.6%; in assay [3], 74%; in assay [4], 66.5%. In addition, the activity at 500 µM in assay [1] stood at 3.4%; in assay [2], 4.8%; in assay [3], 3.7%; in assay [4], 4.6%.
In the case of `O=C(O)c1cc(/C=C/c2ccccc2-c2ccccc2)ccc1O` [DC19, (E)-5-(2-([1,1′-biphenyl]-2-yl)vinyl)-2-hydroxybenzoic acid], the activity at 250 µM in assay [1] is 47.8%; in assay [2], 51%; in assay [3] it was 58.7%; in assay [4], 64.6%. Moreover, the activity at 500 µM turned out to be 3.7% in assay [1], 4.3% in assay [2], 3.3% in assay [3] and 5% in assay [4].
